Patent publication US12378571B2, “Use of glyphosate for disease suppression and yield enhancement in soybean” (Monsanto Technology LLC, priority 2009, dated 2025)

Experiments:
[1] = test system: Brown Stem Rot (Phialaphora gregata); test: Greenhouse studies, Brown Stem Rot, glyphosate timing and rate; assay type: in vivo, soybean; settings: application 4 days before infection, about 0.84-2.5 kg ae/ha
Experimental: (§1) Greenhouse studies were performed to determine the effect of glyphosate timing and rate of application in preventing or suppressing the development of BSR in soybean plants. […] Field trials were also performed. Asgrow cv. 2107 soybean plants were planted and maintained weed free with pre-emergence herbicides at recommended rates, followed by hand weeding as necessary.

[2] = test system: Phakopsora pachyrhizi EPSPS expressed in Escherichia coli strain lacking native EPSPS; test: Zone of growth inhibition, filter paper disk on plate seeded with E. coli expressing fungal EPSPS; assay type: cell-based
Experimental: Glyphosate Mode of Action Against Plant Pathogenic Fungi A gene encoding EPSPS was cloned from a representative phytopathogenic fungus, in this case, from Phakopsora pachyrhizi, the causal agent of Asian Soybean Rust (“ASR”), and expressed in an Escherichia coli strain lacking the native bacterial E. coli EPSPS. Thus, EPSPS activity in the recombinant bacterial strain was due to the presence of the fungal EPSPS. Glyphosate was added to a filter paper disk and placed on a culture plate seeded with the recombinant E. coli cells, allowing for detection of a zone of growth inhibition of bacterial cells.

[3] = Mobilization of glyphosate in planta after foliar application; assay type: in vivo
Description: Mobilization of glyphosate in planta was studied to determine the potential to impact on activity against plant diseases. About 1 day after foliar application of glyphosate about 70% of the applied glyphosate may be found on the leaf surface, where it may directly contact fungal spores or infective structures, inhibiting their growth, and killing them. About 21% of the glyphosate was found localized within the foliage where it can act to inhibit infection locally. About 9% of the applied glyphosate was transported out of the treated leaf and detected systemically (e.g. in stems and roots) at the time of testing (e.g. Feng et al. 2005). The transported fraction of applied glyphosate increases to about 40% over time, further increasing systemic fungicidal activity.

[4] = test system: Diaporthe phaseolorum; test: Greenhouse studies, Stem Canker of soybean, glyphosate after inoculation; assay type: in vivo; settings: 0.84-2.52 kg ae/ha following inoculation
Experimental: Stem Canker of soybean (STC) is caused by Diaporthe phaseolorum. Greenhouse studies were performed to determine the efficacy of timing of glyphosate application (e.g. 0.84-2.52 kg ae/ha) following inoculation with the pathogen.

[5] = test system: Brown Stem Rot (Phialaphora gregata); test: Field trials, Brown Stem Rot, glyphosate (Example 4, Table 1); assay type: in vivo, soybean
Experimental: as §1

[6] = test system: Brown Stem Rot of soybean; test: Field studies, Brown Stem Rot: Roundup WeatherMAX, picoxystrobin, tank mix (Rup 1X = 0.84 kg ae/ha; picoxystrobin 0.125 kg ai/ha); assay type: in vivo; settings: for BSR Foliar Symptoms (0-11 HB scale): picoxystrobin 1X at R2; for Calculated Values (% of control) Foliar Symptoms: treatment 9 (picoxystrobin 1X at R2)
[7] = about 1 day after foliar application

Row | SMILES | foliar incidence of BSR [1] | zone of inhibition ([2]; 5 mg of glyphosate on filter paper disk) | zone of growth inhibition ([2]; 20 mg of glyphosate on filter paper disk) | applied glyphosate found on the leaf surface [3, 7] | glyphosate localized within the foliage [3, 7] | applied glyphosate transported out of the treated leaf and detected systemically (stems and roots) ([3]; at the time of testing, about 1 day after foliar application) | transported fraction of applied glyphosate ([3]; over time) | prophylaxis of Soybean Stem Canker [4] | suppression of BSR, as measured by foliar symptom severity ([5]; glyphosate applied at V3- R2 growth stages) | yield relative to untreated controls ([5]; treated soybean test plots) | BSR Foliar Symptoms (0-11 HB scale) ([6]; 7-Sep) | Calculated Values (% of control) Foliar Symptoms ([6]; 7-Sep) | BSR Foliar Symptoms (0-11 HB scale) ([6]; 14-Sep) | Calculated Values (% of control) Foliar Symptoms ([6]; 14-Sep) | BSR Foliar Symptoms (0-11 HB scale) ([6]; 31-Aug) | Calculated Values (% of control) Foliar Symptoms ([6]; 31-Aug)
1 | O=C(O)CNCP(=O)(O)O [glyphosate, N-phosphonomethylglycine] | reduced the level of foliar incidence of the disease | about 24 mm | about 38 mm | about 70% | About 21% | About 9% | about 40% | Prophylactic results, even 7 or more days post-inoculation, were seen | suppression of BSR (reduced stem rot severity) | Increased yield | – | – | – | – | – | –
2 | CO/C=C(/C(=O)OC)c1ccccc1COc1cccc(C(F)(F)F)n1 [picoxystrobin] | – | – | – | – | – | – | – | – | – | – | 3.6 0-11 HB scale | 72.0 % of control | 6.8 0-11 HB scale | 113.3 % of control | 3.0 0-11 HB scale | 93.8 % of control
